# Measured values taken from US20240299542A1, “NATURAL KILLER CELLS ENGINEERED TO REDUCE OR ELIMINATE CBL-B AND USES THEREOF” (City of Hope, priority 2021, published 2024).
# Assays:
# IFN-γ = assay: Intracellular IFN-γ flow cytometry of siRNA-transduced NK cells; type: cell-based, human
# Experimental: FIGS. 4A-4D depict the results of a study showing that downregulation of Cbl-b increases IFN-γ secretion in IL-15-activated primary human NK cells. (FIG. 4A) RNAseq was conducted using primary human NK cells transduced with either Cbl-b siRNA or Scr siRNA without or with incubation in IL-15 (10 ng/ml) for 16 h (4 donors for each group). […] (FIG. 4B) qRT-PCR was performed to quantify the mRNA levels of IFN-γ (n=6 donors) after IL-15 (10 ng/ml) 6 h stimulation. (FIG. 4C) The percentage of intracellular IFN-γ+ cells in un-transduced NK cells or those transduced with Cbl-b siRNA or Scr siRNA, each activated with IL-15 (10 ng/ml) for 24 h (11.5% vs 4.338%; P=0.0008; n=5 donors). (FIG. 4D) Supernatants were collected after IL-15 (10 ng/ml) for 24 h and IFN-γ concentrations measured by ELISA (18115 pg/ml vs 882.5 pg/ml; P=0.0099; n=7 donors). Scr-scrambled; *P<0.05, **P<0.01, ***P<0.001 by Student's two-tailed paired t-test or One-way ANOVA; ns, not significant. Data presented as mean±SEM.
# FIGS. 9B-9D show intracellular flow cytometric analysis of CD56+ primary human NK cells transduced with Scr siRNA or transduced with Cbl-b siRNA, incubated with IL-18 (10 ng/ml), IL-12 (10 ng/ml) or IL-18 (10 ng/ml) plus IL-12 (10 ng/ml) for 24 h. Scr, scrambled; *P<0.05, ns, not significant. Data are presented as mean±SEM.
# Flow cytometry. To determine protein cell surface expression via flow cytometry, cells were stained with monoclonal antibodies at room temperature for 20 minutes and washed with FACS buffer prior to analysis using a Fortessa X-20 flow cytometer (BD Biosciences). For IFN-γ intracellular flow cytometric analysis, […] GolgiPlug (BD Biosciences) was added for 4 h before cell harvest; cells were then permeabilized and fixed using a Cytofix/Cytoperm Fixation/Permeabilization Solution Kit (BD Biosciences), followed by analysis with a Fortessa X-20 flow cytometer. Intracellular flow cytometric analysis of Mertk was performed similarly except that GolgiPlug was not added. Data was analyzed by using Flowjo V10 software (Tree Star, Ashland, OR, USA).
# To further explore how Cbl-b regulates the functions of primary human NK cells, we performed RNA-seq analyses using enriched primary NK cells from healthy donors transduced with Cbl-b siRNA or Scr siRNA without or with IL-15 treatment for 16 h (n=4 in each group). […] The intracellular results were supported by assessment IFN-γ secretion into the supernatant, in that IL-15-activated primary human NK cells transduced with Cbl-b siRNA expressed 10-fold higher levels of IFN-γ compared to NK cells transduced with Scr siRNA (FIG. 4D).
# Mertk = Mertk phosphorylation by immunoblot in siRNA-transduced NK cells; type: cell-based, human; conditions: vs Scr siRNA
# Experimental: FIGS. 5A-5D depict the results of a study showing that Cbl-b interacts with and regulates phosphorylation of Mertk in primary human NK cells. (FIG. 5A) Representative intracellular flow cytometric analysis of the TAM family receptors expression in primary human NK cells. Summarized data are shown from 6 donors. IgG1 is the isotype for Tyro3 and Axl, while IgG2 for Mertk. (FIG. 5B) The level of Mertk phosphorylation and Cbl-b in Cbl-b siRNA- or Scr siRNA-transduced primary human NK was measured by immunoblot analysis. Data presented are representative of five independent experiments. […] Data presented are representative of 4 donors performed in a similar fashion and are summarized in the panel below the representative flow dot plots. […]
# FIGS. 10A-10B depict immunoblotting analysis of the phosphorylation level of Mertk (p-Mertk). (FIG. 10A) The level of Mertk phosphorylation and Cbl-b in Cbl-b siRNA- or Scr siRNA-transduced primary human NK cells was measured by immunoblot analysis. […] (FIG. 10B) The level of total Mertk expression in Cbl-b siRNA- or Scr siRNA-transduced primary human NK was measured by immunoblot analysis.
# Immunoblotting. […] Densitometric analysis was performed to quantify intensity of gel bands with Image J (National Institutes of Health). […]
substance,measurement,setting,value
"Cbl-b siRNA: Cbl-b-specific Accell siRNA (Dharmacon), SEQ ID NO:1, CCUUCAUGUUCAGAUGGUU (Accell modified siRNA, pattern not given here)",percentage of IFN-γ+ fraction relative to Scr siRNA,IFN-γ; IL-12 (10 ng/ml) or IL-12 plus IL-18 (10 ng/ml each) 24 h,no significant difference
same,percentage of intracellular IFN-γ+ cells,"IFN-γ; IL-15 (10 ng/ml) 24 h, n=5 donors",11.5%
same,intracellular IFN-γ level relative to Scr siRNA,IFN-γ; IL-15-activated,2.5 fold
same,percentage of IFN-γ+ fraction relative to Scr siRNA,IFN-γ; IL-18 (10 ng/ml) 24 h,2.5 fold
same,phosphorylation level of Mertk (p-Mertk),Mertk,significantly increased
